Data set [1] concerns Retinoic Acid Response Element (RARE) transcription factor pathway. Briefly: Cignal RARE Reporter Assay (firefly luciferase) in HEK293 cells. Type of data set: cell-based. The following applies: 24 h, vs water. The source says:
Objective: Retinoic Acid Receptor (RAR) controls gene transcription by binding to Retinoid Acid Response Elements (RAREs) in DNA. This process is modulated by all trans retinoic acid (ATRA)—a compound with well-established anti-aging skin benefits. […] Cignal RARE Reporter Assay® is designed to screen for such compounds using cell cultures. The objective of this project was to test 6 compounds (retinoic acid (ATRA), retinol, vitamin A palmitate, retinal, 10% w/w Near-1 in dimethylisosorbide, and 10% w/w retinoid ester in dimethylisosorbide) for the ability to activate RARE in this Cignal RARE Reporter Assay model.
Materials & Methods: The experiments were performed using HEK293 cells (Sigma, St. Louis, Mo.; cat. #85120602) seeded at 50,000 per well in a 96 well black-wall tissue culture plate. Cells were transfected by mixing Cignal Reporter Assay firefly/renilla luciferase constructs (cat. #CCS-016L; Qiagen) with Attractene Transfection Reagent (Qiagen) in Opti-MEM supplemented with 1% MEM Non-essential amino acid solution without L-glutamine. After medium change test materials were added and their effect on RARE induction was quantified 24 h later with the Dual-Luciferase Reporter Assay System (cat. #E1960; Promega).

Data set [2] has as its system IL-8. Briefly: IL-8 in MelanoDerm tissue culture-conditioned medium by ELISA (skin irritation surrogate). In kind it is cell-based, Human. To be noted: day 14. Here is the method: Objective: The objective of this assay was to determine the ability of the test materials (dimethylisosorbide [DMI], retinoic acid [ATRA], 10% w/w NEAR-1 in dimethylisosorbide [NEAR-1], Niacinamide PC [NAD], and Kojic Acid [KA]) and combinations thereof to inhibit melanin production in MelanoDerm™ skin substitute model. The effect of these experimental conditions on the secretion of the proinflammatory cytokine IL-8 was also assessed, as a surrogate for skin irritation potential. Tissue culture-conditioned media were assayed for the presence of IL-8 by indirect ELISA (using Invitrogen IL-8 Human CytoSet, cat. #CHC 1303). For melanin quantification, the MelanoDerms were frozen, solubilized in Solvable™ (Perkin Elmer) and melanin was extracted at 95° C. overnight. The colorimetric signals proportional to the concentration of extracted melanin, as well as those proportional to the IL-8 in the tissue-conditioned medium in the ELISA test were quantified with Molecular Devices microplate spectrophotometer MAX190 at 490 nm and 405 nm.

Data set [3] relates to melanin production in MelanoDerm™ skin substitute. Put plainly: Melanin-modulatory effect in MelanoDerm skin substitutes (color measurement, melanin extraction). Type of data set: cell-based. The method, then:
Objective: The objective of this assay was to determine the ability of the test materials (dimethylisosorbide [DMI], retinoic acid [ATRA], 10% w/w NEAR-1 in dimethylisosorbide [NEAR-1], Niacinamide PC [NAD], and Kojic Acid [KA]) and combinations thereof to inhibit melanin production in MelanoDerm™ skin substitute model. The effect of these experimental conditions on the secretion of the proinflammatory cytokine IL-8 was also assessed, as a surrogate for skin irritation potential.
Tissues were equilibrated at 37° C. for 60 min. and undiluted samples (25 μl) of test materials were applied on top of tissues in duplicates. DMI and kojic acid were applied at 2.5% and 2% (w:v) respectively (dissolved in double distilled water). Tissue culture was pursued in the pigmentation-inducing medium EPI-100-NMM-113 for 14 days, with reapplication of test materials and changes of tissue culture media every 2-3 days.
At the end of the experiment, tissue pigmentation was quantified non-invasively with NS800 portable spectrophotometer (3NH Technology Co., Ltd., China). This instrument is a reflectance spectrophotometer that measures reflected light in the visible spectrum (range: 400-700 nm) recording colors in a three-dimensional space known as CIEL*a*b* color space. In this project, the L* value representing the lightness of the color was used for color assessment. For the purpose of this experiment, the range of the L* parameter spanned from 17.8 (black background) to 87.8 (white background).
For melanin quantification, the MelanoDerms were frozen, solubilized in Solvable™ (Perkin Elmer) and melanin was extracted at 95° C. overnight. The colorimetric signals proportional to the concentration of extracted melanin, as well as those proportional to the IL-8 in the tissue-conditioned medium in the ELISA test were quantified with Molecular Devices microplate spectrophotometer MAX190 at 490 nm and 405 nm.

Data set [4] relates to Retinoid X receptor (RXR) transcription factor pathway. Put plainly: Cignal RXR Reporter Assay (firefly luciferase) in HEK293 cells. In kind it is cell-based. The following applies: for RXR activation (% control): 24 h, vs water. The source says: Objective: Retinoid X receptors (RXRs) are one class of nuclear receptors through which retinoids mediate their biological effects. These receptors function as transcription factors by binding as heterodimers to specific sequences in the promoters of target genes. The protein encoded by this gene is a member of the steroid and thyroid hormone receptor superfamily of transcriptional regulators. One of its ligands is all trans retinoic acid (ATRA)—a compound with well-established anti-aging skin benefits. […] Cignal RXR Reporter Assay® is designed to screen for such compounds (retinoic acid (ATRA), retinal, 10% w/w Near-1 in dimethylisosorbide, and 10% w/w retinoid ester in dimethylisosorbide) using cell cultures. The objective of this project was to test four compounds for the ability to activate RXR in this Cignal RXR Reporter Assay model.
The experiments were performed using HEK293 cells (Sigma, St. Louis, Mo.; cat. #85120602) seeded at 50,000 per well in a 96 well black-wall tissue culture plate. Cells were transfected by mixing Cignal RXR Reporter Assay firefly/renilla luciferase constructs (cat. #CCS9044L; Qiagen) with Attractene Transfection Reagent (Qiagen) in Opti-MEM supplemented with 1% MEM Non-essential amino acid solution without Lglutamine. After medium change test materials were added and their effect on RXR induction was quantified 24 h later with the Dual-Luciferase Reporter Assay System (cat. #E1960; Promega).
RXR is a mixture of an inducible retinoid X receptor—responsive firefly luciferase construct and a constitutively expressing Renilla construct, which acts as an internal control for normalizing transfection efficiencies and monitoring cell viability. Signal quantification was obtained with ThermoFisher Scientific Luminoskan Ascent Microplate Luminometer.

Data set [5] relates to MelanoDerm tissues. Briefly: Cytotoxicity by microscopic observation of MelanoDerm tissues. In kind it is cell-based. To be noted: 2.2 mM; 2 weeks. Here is the method: Tissues were equilibrated at 37° C. for 60 min. and undiluted samples (25 μl) of test materials were applied on top of tissues in duplicates. DMI and kojic acid were applied at 2.5% and 2% (w:v) respectively (dissolved in double distilled water). Tissue culture was pursued in the pigmentation-inducing medium […]-113 for 14 days, with reapplication of test materials and changes of tissue culture media every 2-3 days. Results and Discussion: From the macroscopic documentation of all the MelanoDerm tissues at the end of the experiment, differences of color are clearly visible between the solvent controls and some test materials. Table 34 informs whether cytotoxicity may have played a role in these differences. Table 34 also reports the non-invasive MelanoDerm color measurement performed with portable spectrophotometer. [table]

The source of these data is patent US11318077B2, “Retinaldehyde containing compositions and methods of use” (RODAN & FIELDS, LLC, priority 2017, dated 2022).

Consider `CC1=C(/C=C/C(C)=C/C=C/C(C)=C/C(=O)OCCNC(=O)c2cccnc2)C(C)(C)CCC1` [NEAR-1, 2-(nicotinamido)-ethyl retinoate], for which the “RARE-mediated firefly luciferase expression, % control” value stood at 461 % control in data set [1] (1 μM), 652 % control in data set [1] (5 μM) and 586 % control in data set [1] (10 μM). Moreover, the entries for the “RARE-mediated firefly luciferase expression, Fold increase” value in data set [1] (1 μM), in data set [1] (5 μM) and in data set [1] (10 μM) were 4.6, 6.5 and 5.8, respectively. The “IL-8 (col. Units)” value is 208 col. Units in data set [2] (833 μM) and 209 col. Units in data set [2] (2.2 mM). Further, the “Color measurement (whitening units)” value turned out to be 30.0 whitening units in data set [3] (833 μM, 2 weeks) and 27.4 whitening units in data set [3] (2.2 mM, 2 weeks). The “Raw *L values” in data set [3] (833 μM, 2 weeks) turned out to be 72.8; in data set [3] (2.2 mM, 2 weeks), 70.2. Moreover, the “Melanin Content” value in data set [3] (2.2 mM, 2 weeks) amounted to 22 µg/mL. For the same molecule, the “Melanin Content (% control)” value in data set [3] (2.2 mM, 2 weeks) is 26 % control. The “Whitening effect (ranking in the retinoid category)” value in data set [3] (NEAR-1 at 833 μM, Retinaldehyde 833 μM+NAD 835 μM) is “best whitening effect at non-cytotoxic concentration”. The “RXR activation (% control)” value in data set [4] (1 μM) is on record as 103 % control; in data set [4] (5 μM), 112 % control; in data set [4] (10 μM) it was 127 % control. The “modulatory effect on RXR-mediated gene expression” value in data set [4] (10 uM, statistically-significant) came to 1.3 fold. In addition, the Cytotoxicity entry in data set [5] is reported as “Yes”.
